pIC50: −log10 of the molar value. Read-outs that look alike come from different tables or passages of the source.
Assays:
[1] = Dynamic Vapour Sorption (DVS) analysis; assay type: physicochemical; conditions: for kinetic stability: on the DVS timescale
Description: Analytical Instrument: Surface Measurements Systems Dynamic Vapour Sorption Analyser, calibrated with a saturated salt solution, such as sodium chloride.
About 5 mg of material contained in a quartz holder at a specified temperature was subjected to humidified nitrogen at a flow rate of 200 ml/minute of nitrogen at the following relative humidities (RH): 0, 20, 40, 60, 80, 95, 80, 60, 40, 20, 0% RH in duplicate.
The weight of the material at a particular relative humidity was constantly monitored using an in-situ balance until it was stable according to a weight criteria of 0.002% weight change per minute averaged over 10 minutes. If the weight was still changing then it stayed at a particular relative humidity until the weight was stable (up to a maximum time of 12 hours).

[2] = system: human umbilical vein endothelial cells (HUVEC); conditions: as disclosed in WO 01/32651, cited from earlier work
CaLu-6 tumour xenografts = conditions: 50 mg/kg, orally once daily; CaLu-6 xenografts in mice; p<0.001 (Mann-Whitney Rank Sum Test); cited from earlier work
[3] = system: femoral epiphyseal growth plates; conditions: 100 mg/kg/day in female rats, 14 days oral; p<0.001 (one-tailed Students' t-test); cited from earlier work

Q: Which results are given for COc1cc2c(Nc3ccc(Br)cc3F)ncnc2cc1OCC1CCN(C)CC1 [ZD6474 anhydrous, 4-(4-bromo-2-fluoroanilino)-6-methoxy-7-(1-methylpiperidin-4-ylmethoxy)quinazoline]?
A: hygroscopicity by DVS ([1]; 25° C.): non-hygroscopic; water absorbed ([1]; at 95% relative humidity, 25° C.): 0.63 % weight/weight; kinetic stability [1]: kinetically stable

Q: For COc1cc2c(Nc3ccc(Br)cc3F)ncnc2cc1OCC1CCN(C)CC1 [ZD6474 monohydrate, 4-(4-bromo-2-fluoroanilino)-6-methoxy-7-(1-methylpiperidin-4-ylmethoxy)quinazoline], which “rate of weight loss on storage” value ([1]; 0% relative humidity at 25° C., once surface moisture has been removed) is on record?
A: Its value is “extremely slow”.

Q: What about the “rate of weight loss on storage” value ([1]; 0% relative humidity at 40° C.) of the same compound?
A: Its value is “surprisingly slow”.

Q: What about the “hygroscopicity by DVS” value ([1]; 25° C.) of the same compound?
A: Its value is “non-hygroscopic”.

Q: And the “conversion to the anhydrous form of ZD6474 during drying” value ([1]; 25° C. and 0% relative humidity)?
A: The value was “less than 5%”.

Q: And the kinetic stability [1]?
A: Its kinetic stability is “kinetically stable”.

Q: Which results are given for COc1cc2c(Nc3ccc(Br)cc3F)ncnc2cc1OCC1CCN(C)CC1 [ZD6474, 4-(4-bromo-2-fluoroanilino)-6-methoxy-7-(1-methylpiperidin-4-ylmethoxy)quinazoline]?
A: pIC50 ([2]; EGF-stimulated HUVEC proliferation, read-out: EGF IC50): 6.77; pIC50 ([2]; VEGF-stimulated HUVEC proliferation, read-out: VEGF IC50): 7.22; pIC50 ([2]; basal HUVEC proliferation, read-out: Basal IC50): < 5.52; inhibition of tumour growth (CaLu-6 tumour xenografts): 78%; increase in epiphyseal growth plate hypertrophy [3]: 75%
